The values that follow come from patent publication US20260207604A1, “COMPOUND AND USE THEREOF” (ONQUALITY PHARMACEUTICALS CHINA LTD., priority 2022, published 2026).

Series [1] addresses CDK9/cyclin T (Homo sapiens, UniProt P50750). Nature of the series: KinaseProfile radiometric protein kinase assay, CDK9/cyclin T. It counts as biochemical. The method, then:
(§1) The KinaseProfile radiometric protein kinase assay was used to evaluate the inhibitory activity of the compounds against CDK2/cyclin E, CDK4/cyclin D, CDK6/cyclin D, CDK7/cyclin H and CDK9/cyclin T.
(§2) The compounds were prepared in 100% DMSO at a final 50× stock concentration. The working stock solution was added as the first component to the assay wells. CDK2/cyclin E, CDK4/cyclin D, CDK6/cyclin D, CDK7/cyclin H, and CDK9/cyclin T were added in their respective kinase buffers: (CDK4: 8 mM MOPS pH 7.0, 0.2 mM EDTA, 0.03% BSA, 0.03% Tween 20, 20 mM DTT, and 0.2 mg/ml Rb fragment, 10 mM Magnesium acetate; CDK2, CDK6: 8 mM MOPS pH 7.0, 0.2 mM EDTA, 0.1 mg/mL histone H1, 10 mM Magnesium acetate; CDK7: 8 mM MOPS pH 7.0, 0.2 mM EDTA, 500 μM peptide, 10 mM Magnesium acetate; CDK9: 8 mM MOPS pH 7.0, 0.2 mM EDTA, 100 μM […], 10 mM Magnesium acetate) and [γ-^33 P-ATP] was included in the reaction mixture. The reaction was initiated by the addition of the Mg/ATP mixture and incubated at room temperature for 40 minutes. The reaction was terminated by the addition of 0.5% phosphoric acid. Then, 10 μL of the reaction mixture was spotted onto P30 filter pads, washed four times (1 minute each) with 0.425% phosphoric acid, followed by a single wash with methanol. The pads were then dried and counted. The data were recorded, inhibition rates were calculated, and IC50 values were determined accordingly. Table 2 summarizes the in vitro enzymatic inhibitory activity of the compounds of the present application.

Series [2] relates to MCF-7 human breast cancer cells. Nature of the series: Cell viability assay (CELLTITER-GLO). It counts as cell-based. Particulars: MCF7, 168 h, MCF-7 cells, 7 days. The protocol: The cell viability of MCF-7 human breast cancer cells under standard culture conditions was assessed using the CELLTITER-GLO assay. MCF-7 cells were seeded at 3,000 cells per well in 96-well plates and incubated overnight in a CO2 incubator. The next day, serial dilutions of Compound 1 at various concentrations were added to the wells. The plates were returned to the incubator and cultured for 7 days. After 7 days, the plates were equilibrated at room temperature for 30 minutes. Subsequently, 100 μL of CELLTITER-GLO detection solution was added. The cells were mixed on an orbital shaker for 5 min and then incubated for additional 10 min. The plate was read with an ENVISION reader. Data were processed and analyzed to determine the IC50 values.
A general note: In ATP-based viability assays light output follows the ATP content of the culture.

Series [3] has as its target CDK2/cyclin E (Homo sapiens, UniProt P24941). Kind of series: KinaseProfile radiometric protein kinase assay, CDK2/cyclin E. It counts as biochemical. The protocol: as §1, §2
For series [4], the target named is CDK6/cyclin D (Homo sapiens, UniProt Q00534). Nature of the series: KinaseProfile radiometric protein kinase assay, CDK6/cyclin D. The series is classed as biochemical. The method, then: as §1, §2
The subject of series [5] is 5-FU-induced diarrhea model. Nature of the series: 5-FU-induced diarrhea model, 5-FU 3-day model. The settings on record: 5-FU 60 mg/kg once a day for 3 days, mice. The series is classed as in vivo, Balb/c mice. The method, then:
The 5-FU-induced diarrhea model was used as an experimental model of the present invention to evaluate the in vivo activity of the compounds.
Balb/c mice (20-25 g, 7-8 weeks old, Jihui) were acclimated for one week and then randomly assigned to 3 groups (n=10 per group): control group, 5-FU group, and CDK inhibitor group. […] […] […] From Day 1 to Day 7, diarrhea severity was assessed daily for each mouse according to the diarrhea scoring system.
The diarrhea scoring system was based on the method by Akinobu Kurita (Cancer Chemother Pharmacol 2000; 46:211-20), Grade 0: normal stool; Grade 1: mild diarrhea, slightly soft stool and wet stool; Grade 2: moderate diarrhea, loose stool with slight perianal staining; Grade 3: severe diarrhea, loose watery stool with severe perianal staining.
The diarrhea relief rate (%) was calculated as follows: […]

Series [6] deals with Human colorectal cancer COLO205 cells. Nature of the series: Cell apoptosis assay (Caspase-Glo 3/7), 5-FU-induced apoptosis. It counts as cell-based. The protocol:
The Caspase-Glo® 3/7 assay was employed to evaluate the protective effect of the compounds of the present invention against 5-fluorouracil (5-FU)-induced apoptosis. Human colorectal cancer COLO205 cells were cultured in RPMI 1640 medium (Invitrogen) in an incubator at 37° C. with 5% CO2.
COLO205 cells were seeded in 96-well plates at a density of 4,000 cells per well and incubated overnight. On the following day, serially diluted concentrations of Compound 1 were added to the wells and incubated for 16 hours. Afterward, 5-FU was added and the cells were incubated for an additional 48 hours. Subsequently, Caspase-Glo® 3/7 reagent (100 μL) was added to each well. The cells were mixed on an orbital shaker for 10 min and incubated at room temperature for 2 h. After an additional 10-minute incubation, the plate was measured using the Envision instrument and the data was processed. Relief rate (%)=(5-FU group−CDK group)/5-FU group×100%.

Series [7] deals with CDK7/cyclin H (Homo sapiens, UniProt P50613). Kind of series: KinaseProfile radiometric protein kinase assay, CDK7/cyclin H. The series is classed as biochemical. The method, then: as §1, §2
The test system of series [8] is Irinotecan-induced constipation model. Nature of the series: Irinotecan-induced constipation model. It counts as in vivo, Sprague-Dawley rats. The settings on record: irinotecan 260 mg/kg once a day, 1 day, rats. The source says: Sprague-Dawley rats (180-200 g, 7-8 weeks old, Jihui) were acclimated for 7 days and randomly divided into three groups: control group, irinotecan group, and CDK inhibitor group, with 10 rats per group. The control group received the same vehicle orally as the CDK inhibitor group, followed by an injection of the same vehicle as the irinotecan group; the irinotecan group received the same oral vehicle as the CDK inhibitor group, followed by an injection of irinotecan; the CDK inhibitor group received the CDK inhibitor orally, followed by an injection of irinotecan.
From Day 2 to Day 7, the degree of constipation was assessed for each rat based on the following score:
Constipation assessment: Feces excreted within a 3-hour period were collected and evaluated for morphology and weight using an electronic balance. Stool reduction rate was calculated according to the method of Ji Eun Kim (Lab Anim Res. 2016 December; 32(4): 231-240). Stool reduction rate (%)=(Control group−Irinotecan or CDK inhibitor group)/Control group×100%.
The constipation relief rate of the CDK inhibitor was calculated as follows: Relief rate (%)=([…])/Irinotecan group stool reduction rate×100%.

The mark [9] stands for this setting: 10 mg/kg oral twice a day for 3 days.
Setting [10] is: 10 mg/kg oral twice a day for 3.5 days.
Where [11] appears, read: 50 mg/kg oral twice a day for 3 days.
[12] abbreviates: 100 mg/kg oral twice a day for 3 days.
The mark [13] stands for this setting: 50 mg/kg oral, 4 hours before irinotecan and 8 hours after irinotecan.
Where [14] appears, read: 50 mg/kg oral, 6 hours before irinotecan and 6 hours after irinotecan.
The mark [15] stands for this setting: 25 mg/kg oral, 6 hours before irinotecan and 6 hours after irinotecan.

Like-named read-outs stand apart in the source and are kept apart here.

Sequence of CDK9/cyclin T (P50750 whole entry): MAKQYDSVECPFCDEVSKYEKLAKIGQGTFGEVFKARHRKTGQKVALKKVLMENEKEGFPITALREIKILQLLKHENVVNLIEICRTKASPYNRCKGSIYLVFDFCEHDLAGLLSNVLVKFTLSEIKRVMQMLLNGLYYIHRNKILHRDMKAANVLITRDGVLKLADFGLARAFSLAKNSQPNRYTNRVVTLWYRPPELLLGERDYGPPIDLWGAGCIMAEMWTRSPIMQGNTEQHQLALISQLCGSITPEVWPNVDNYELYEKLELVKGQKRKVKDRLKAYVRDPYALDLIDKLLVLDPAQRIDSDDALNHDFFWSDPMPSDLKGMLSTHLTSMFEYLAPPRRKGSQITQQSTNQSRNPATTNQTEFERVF
Sequence of CDK9/cyclin T (O60563 whole entry partner): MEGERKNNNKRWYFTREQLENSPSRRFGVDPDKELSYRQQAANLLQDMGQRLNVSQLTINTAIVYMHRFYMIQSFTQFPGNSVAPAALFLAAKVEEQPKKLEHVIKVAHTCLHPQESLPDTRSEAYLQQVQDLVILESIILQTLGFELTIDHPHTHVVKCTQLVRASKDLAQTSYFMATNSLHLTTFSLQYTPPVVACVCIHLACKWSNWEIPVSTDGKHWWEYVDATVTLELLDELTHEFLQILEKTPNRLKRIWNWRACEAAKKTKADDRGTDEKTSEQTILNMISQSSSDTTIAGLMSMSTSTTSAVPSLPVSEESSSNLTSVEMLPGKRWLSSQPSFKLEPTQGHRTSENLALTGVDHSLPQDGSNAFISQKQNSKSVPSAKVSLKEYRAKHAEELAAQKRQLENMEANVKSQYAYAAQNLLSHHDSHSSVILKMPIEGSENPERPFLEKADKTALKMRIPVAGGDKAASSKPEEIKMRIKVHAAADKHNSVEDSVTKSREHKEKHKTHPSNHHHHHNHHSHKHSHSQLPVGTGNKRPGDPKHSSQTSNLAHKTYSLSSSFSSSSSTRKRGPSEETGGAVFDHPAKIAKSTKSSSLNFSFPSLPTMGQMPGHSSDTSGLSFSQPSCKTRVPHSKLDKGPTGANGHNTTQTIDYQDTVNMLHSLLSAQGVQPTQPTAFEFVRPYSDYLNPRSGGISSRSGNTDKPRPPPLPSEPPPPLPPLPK
Sequence of CDK6/cyclin D (Q00534 whole entry): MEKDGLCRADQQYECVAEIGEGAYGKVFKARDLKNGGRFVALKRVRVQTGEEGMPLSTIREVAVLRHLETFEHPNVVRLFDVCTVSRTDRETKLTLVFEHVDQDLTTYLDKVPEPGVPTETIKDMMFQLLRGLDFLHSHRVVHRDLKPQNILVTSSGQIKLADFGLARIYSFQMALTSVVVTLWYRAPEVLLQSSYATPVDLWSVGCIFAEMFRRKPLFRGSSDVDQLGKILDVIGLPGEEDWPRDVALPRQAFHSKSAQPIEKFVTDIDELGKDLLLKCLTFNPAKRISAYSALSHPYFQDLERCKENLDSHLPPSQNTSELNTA
Sequence of CDK6/cyclin D (P30281 whole entry partner): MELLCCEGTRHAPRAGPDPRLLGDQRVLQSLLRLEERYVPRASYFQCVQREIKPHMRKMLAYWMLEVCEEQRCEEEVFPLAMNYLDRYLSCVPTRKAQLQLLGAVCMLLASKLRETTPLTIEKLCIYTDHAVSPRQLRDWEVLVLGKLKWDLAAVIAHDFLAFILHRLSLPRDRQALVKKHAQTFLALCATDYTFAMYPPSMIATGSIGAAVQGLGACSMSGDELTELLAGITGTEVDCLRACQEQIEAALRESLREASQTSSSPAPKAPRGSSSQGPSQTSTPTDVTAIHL
Sequence of CDK7/cyclin H (P50613 whole entry): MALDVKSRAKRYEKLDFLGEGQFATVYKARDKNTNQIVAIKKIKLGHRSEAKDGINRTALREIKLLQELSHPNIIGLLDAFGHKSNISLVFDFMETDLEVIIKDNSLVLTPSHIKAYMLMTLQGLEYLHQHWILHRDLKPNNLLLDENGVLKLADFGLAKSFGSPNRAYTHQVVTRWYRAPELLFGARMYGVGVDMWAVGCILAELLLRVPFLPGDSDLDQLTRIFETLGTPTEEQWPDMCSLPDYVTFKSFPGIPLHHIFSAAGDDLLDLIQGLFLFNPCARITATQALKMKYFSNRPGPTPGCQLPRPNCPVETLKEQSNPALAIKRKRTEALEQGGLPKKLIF
Sequence of CDK7/cyclin H (P51946 whole entry partner): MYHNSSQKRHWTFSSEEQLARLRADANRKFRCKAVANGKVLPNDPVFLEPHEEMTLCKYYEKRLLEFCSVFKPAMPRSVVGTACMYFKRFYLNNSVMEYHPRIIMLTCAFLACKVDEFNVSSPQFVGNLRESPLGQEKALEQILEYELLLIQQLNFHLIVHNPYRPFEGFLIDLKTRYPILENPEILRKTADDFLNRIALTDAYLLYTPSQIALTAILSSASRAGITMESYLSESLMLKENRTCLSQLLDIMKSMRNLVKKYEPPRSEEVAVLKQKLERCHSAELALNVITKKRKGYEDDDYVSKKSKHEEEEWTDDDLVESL
Sequence of CDK7/cyclin H (P51948 whole entry partner): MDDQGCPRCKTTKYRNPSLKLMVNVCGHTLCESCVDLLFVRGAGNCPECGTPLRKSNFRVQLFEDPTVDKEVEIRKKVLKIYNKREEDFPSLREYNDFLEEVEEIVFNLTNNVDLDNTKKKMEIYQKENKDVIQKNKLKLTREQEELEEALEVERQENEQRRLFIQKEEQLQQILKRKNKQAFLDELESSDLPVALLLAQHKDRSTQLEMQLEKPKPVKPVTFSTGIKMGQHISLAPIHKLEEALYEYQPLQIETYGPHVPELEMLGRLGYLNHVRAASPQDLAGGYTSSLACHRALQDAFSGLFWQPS

Turning to `CC(=O)c1c(C)c2cnc(Nc3ccc(N4CCN(S(=O)(=O)NCC(C)N)CC4)cn3)nc2n(C2CCCC2)c1=O` (stereo not drawn) [Compound 3], the IC50 was greater than 3 µM in series [1]; less than 10 µM in series [2] (read-out: Absolute IC 50); less than 5 µM in series [2] (read-out: Relative IC 50); greater than 10 µM in series [3]; less than 0.1 µM in series [4]; greater than 10 µM in series [7]. Also, the diarrhea relief rate was 25% in series [5] (5 mg/kg oral twice a day for 4 days); 30% in series [5] (setting [9]); 40% in series [5] (setting [10]); 40% in series [5] (setting [11]); 40% in series [5] (50 mg/kg oral twice a day for 3.5 days); 70% in series [5] (setting [12]). Further, the “Relief rate of 5-FU -induced cell apoptosis” value (“Relief rate of 5-FU” below) in series [6] (concentration 0.1 μM) is listed as 20%; in series [6] (concentration 1 μM), 40%; in series [6] (concentration 5 μM) it was 40%; in series [6] (concentration 25 μM), 30%. The constipation relief rate in series [8] (25 mg/kg oral, 8 hours before irinotecan and 4 hours after irinotecan) came out at 50%; in series [8] (25 mg/kg oral, 12 hours before irinotecan and 0 hours after irinotecan), 30%; in series [8] (setting [13]), 60%; in series [8] (setting [14]), 70%.

For `CC(=O)c1c(C)c2cnc(Nc3ccc(N4CCN(S(=O)(=O)NCC(C)CN)CC4)cn3)nc2n(C2CCCC2)c1=O` (stereo not drawn) [Compound 5], the IC50 is greater than 3 µM in series [1]; less than 10 µM in series [2] (read-out: Absolute IC 50); less than 10 µM in series [2] (read-out: Relative IC 50); greater than 3 µM in series [3]; less than 0.05 µM in series [4]; greater than 10 µM in series [7]. Moreover, the diarrhea relief rate is listed as 40% in series [5] (setting [9]); 75% in series [5] (setting [10]); 30% in series [5] (30 mg/kg oral twice a day for 4 days); 40% in series [5] (setting [11]); 50% in series [5] (60 mg/kg oral twice a day for 3.5 days); 50% in series [5] (setting [12]). Further, the “Relief rate of 5-FU” value in series [6] (concentration 0.5 μM) was determined as 10%; in series [6] (concentration 5 μM), 50%; in series [6] (concentration 50 μM) it was 40%; in series [6] (concentration 100 μM), 30%. Moreover, the constipation relief rate in series [8] (5 mg/kg oral, 4 hours before irinotecan and 8 hours after irinotecan) was 25%; in series [8] (setting [15]) it was 40%; in series [8] (setting [13]), 80%; in series [8] (50 mg/kg oral, 8 hours before irinotecan and 4 hours after irinotecan), 60%; in series [8] (100 mg/kg oral, 4 hours before irinotecan and 8 hours after irinotecan), 50%; in series [8] (100 mg/kg oral, 10 hours before irinotecan and 2 hours after irinotecan) it was 40%.

On to `CC(=O)c1c(C)c2cnc(Nc3ccc(N4CCN(S(=O)(=O)NCCCN)CC4)cn3)nc2n(C2CCCC2)c1=O` [Compound 4], for which the IC50 in series [1] was greater than 3 µM; in series [2] (read-out: Absolute IC 50), less than 1 µM; in series [2] (read-out: Relative IC 50), less than 1 µM; in series [3], greater than 3 µM; in series [4], less than 0.05 µM; in series [7] it was greater than 3 µM. The diarrhea relief rate in series [5] (5 mg/kg oral twice a day for 3 days) is recorded as 30%; in series [5] (setting [10]), 50%; in series [5] (10 mg/kg oral twice a day for 4 days), 40%; in series [5] (25 mg/kg oral twice a day for 3.5 days), 55%; in series [5] (setting [11]), 60%; in series [5] (setting [12]), 40%. The “Relief rate of 5-FU” value came out at 40% in series [6] (concentration 10 μM), 50% in series [6] (concentration 25 μM), 50% in series [6] (concentration 50 μM) and 30% in series [6] (concentration 100 μM). The constipation relief rate in series [8] (10 mg/kg oral, 4 hours before irinotecan and 8 hours after irinotecan) came to 40%; in series [8] (setting [15]), 50%; in series [8] (setting [14]), 70%; in series [8] (100 mg/kg oral, 8 hours before irinotecan and 4 hours after irinotecan), 40%; in series [8] (100 mg/kg oral, 12 hours before irinotecan), 30%.
